“Also recorded” adds a separate entry of the source.
Tests used:
V2R [1] = molecular target: T1, V2R (Homo sapiens, UniProt P30518); conditions: ligand is inverse agonist in the AC pathway; leads to activation of the ERK cascade; cited from earlier work
Target sequence in this assay (P30518 whole entry): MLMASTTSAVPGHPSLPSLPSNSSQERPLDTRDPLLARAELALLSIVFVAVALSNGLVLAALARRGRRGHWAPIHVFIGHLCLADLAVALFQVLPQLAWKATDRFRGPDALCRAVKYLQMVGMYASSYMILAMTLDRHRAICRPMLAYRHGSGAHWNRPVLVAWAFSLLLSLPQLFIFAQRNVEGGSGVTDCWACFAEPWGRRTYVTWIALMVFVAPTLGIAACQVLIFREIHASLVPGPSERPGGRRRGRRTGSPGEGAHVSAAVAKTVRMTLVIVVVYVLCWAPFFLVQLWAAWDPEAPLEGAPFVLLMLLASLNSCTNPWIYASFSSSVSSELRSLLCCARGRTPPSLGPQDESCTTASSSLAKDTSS
Target sequence in this assay (P32121 whole entry partner): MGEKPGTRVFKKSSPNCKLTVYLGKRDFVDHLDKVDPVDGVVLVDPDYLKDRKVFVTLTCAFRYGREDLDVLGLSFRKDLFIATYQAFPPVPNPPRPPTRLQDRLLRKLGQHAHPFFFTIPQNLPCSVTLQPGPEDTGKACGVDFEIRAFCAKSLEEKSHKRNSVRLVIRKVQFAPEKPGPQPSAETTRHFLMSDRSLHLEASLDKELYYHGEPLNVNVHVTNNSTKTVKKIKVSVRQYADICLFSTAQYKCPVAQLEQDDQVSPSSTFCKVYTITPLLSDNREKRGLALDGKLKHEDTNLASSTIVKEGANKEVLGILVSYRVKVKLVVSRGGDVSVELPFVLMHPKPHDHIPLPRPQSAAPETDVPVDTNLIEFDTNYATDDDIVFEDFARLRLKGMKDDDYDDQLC

V2R [2] = molecular target: T1, V2R; experiment: Intramolecular BRET1 of double-brilliance β-arr (Luc-β-arr-YFP): conformational change of β-arr; type: cell-based; set-up: expressed in transfected cells; host or cells: HEK293; conditions: HEK293 cells co-expressing V2R and Luc-β-arr-YFP
Target sequence in this assay (P30518 whole entry): as the sequence (P30518 whole entry) above
Method: HEK293 cells were transfected with the indicated plasmids and BRET was measured at 25° C. in the presence of coelenterazine h. […] Data are the mean±s.e.m. of at least three independent experiments. *P<0.01 between treated and control condition.
The basal BRET signals were subtracted from each condition to express the data as ligand-induced BRET increase.
BRET assays. […] Briefly, cells were distributed in 96-well microplates (Corning, Corning, USA) and incubated with or without agonist for the indicated time at 25° C. The appropriate Luc substrate was added to a final concentration of 5 mM, either simultaneously with the agonist (time course) or following agonist treatment (single measurement or dose dependency), and readings were collected using a Multilabel Reader Mithras LB 940 (Berthold Technologies, Bad Wildbad, Germany). […] The BRET signal was determined by calculating the ratio of the light emitted by the fluorescent acceptor and the light emitted by Luc. The values were corrected by subtracting the background BRET signals detected when Luc-β-arr was expressed alone.

For CCOc1ccc2c(c1)C1(CCC(OCCN3CCOCC3)CC1)C(=O)N2S(=O)(=O)c1ccc(C(=O)NC(C)(C)C)cc1OC (centres unmarked) [SR121463], the “recruitment of β-arr” value (V2R [1]) is listed as “induced the recruitment of β-arr” and the “ligand-induced intramolecular BRET increase” value (V2R [2]) is listed as “significantly lower than that induced by AVP treatment; also recorded: can promote an increase in the BRET signal”.
